The source of these data is PMC8646129 (Biochemistry and Biophysics Reports, 2021).

SMILES strings stand for the structures. pEC50: −log10 of the molar value.

This test concerns the target T1, TMEM16B (Mus musculus, UniProt Q8CFW1).
T1 sequence (Q8CFW1 1-1002): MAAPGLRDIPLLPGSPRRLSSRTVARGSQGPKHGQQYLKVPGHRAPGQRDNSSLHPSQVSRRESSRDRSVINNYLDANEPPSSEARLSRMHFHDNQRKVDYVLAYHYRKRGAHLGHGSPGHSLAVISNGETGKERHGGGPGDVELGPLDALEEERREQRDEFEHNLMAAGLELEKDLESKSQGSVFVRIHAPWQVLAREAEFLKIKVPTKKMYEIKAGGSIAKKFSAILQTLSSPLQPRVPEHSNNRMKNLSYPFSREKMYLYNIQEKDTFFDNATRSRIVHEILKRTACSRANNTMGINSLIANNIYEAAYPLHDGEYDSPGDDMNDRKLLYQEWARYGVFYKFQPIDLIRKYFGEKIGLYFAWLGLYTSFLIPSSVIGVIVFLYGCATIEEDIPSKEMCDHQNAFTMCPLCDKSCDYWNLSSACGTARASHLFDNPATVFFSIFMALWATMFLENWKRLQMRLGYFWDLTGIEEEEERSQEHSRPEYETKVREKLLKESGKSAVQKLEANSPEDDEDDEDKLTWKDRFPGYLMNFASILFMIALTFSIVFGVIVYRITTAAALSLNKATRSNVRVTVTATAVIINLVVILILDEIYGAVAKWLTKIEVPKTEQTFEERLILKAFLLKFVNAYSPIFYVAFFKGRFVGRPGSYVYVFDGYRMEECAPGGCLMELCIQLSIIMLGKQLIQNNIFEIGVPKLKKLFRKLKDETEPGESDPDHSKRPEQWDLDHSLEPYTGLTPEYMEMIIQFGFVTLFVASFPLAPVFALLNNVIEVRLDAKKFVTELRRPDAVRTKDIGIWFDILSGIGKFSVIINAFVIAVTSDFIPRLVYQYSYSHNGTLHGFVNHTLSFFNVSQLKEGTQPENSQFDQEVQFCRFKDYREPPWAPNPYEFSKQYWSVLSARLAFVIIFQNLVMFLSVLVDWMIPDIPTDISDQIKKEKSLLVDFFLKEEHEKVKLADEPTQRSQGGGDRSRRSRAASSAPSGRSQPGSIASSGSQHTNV
Description: whole-cell patch clamp of transfected HEK293 cells. The format is cell-based. On the technique in general: In patch-clamp work, channel activity is measured electrically.

In turn, `O=C(NC1(c2ccccc2)CC1)c1c(CN2CCC(N3CCCCC3)CC2)c(-c2cccc(C(F)(F)F)c2)nc2cc(Br)ccc12` [GSKb, GSK2193874] showed a pEC50 of 7.62.

As usually defined, the pEC50 is the negative decadic logarithm of the EC50, by convention in mol/L. Lower therefore signals a high EC50.
